Holding throughout (type): in vitro ADME
The nature of data set [1]: Stability of the compound in liver microsomes (human). Conditions: 1 μM compound, 0.5 mg protein/mL; for Human liver microsomes T½ / half-life at 1 μM: 37° C.; for half-life at 1 μM: human, liver microsomes, read-out: Human liver microsomes T½. How it is done: 2.1.1. working solution: 5 μL of test or control compound stock solution (10 mM DMSO solution) was diluted with 495 μL of acetonitrile (ACN) to obtain an intermediate stock solution (100 μM, 99% ACN).
2.2.2 Preparation procedure: An appropriate amount of NADPH powder was weighed and diluted with 10 mM MgCl2 buffer (working solution concentration: 10 mM; final reaction system concentration: 1 mM).
2.3.2 Preparation procedure: The appropriate concentration of liver microsomal working solution was prepared in 100 mM potassium phosphate buffer;
Acetonitrile (ACN) solution at 4° C. containing 200 ng/mL of Tolbutamide and 200 ng/ml of labetalol as internal standards 2.5. Operation steps:
2.5.2. Diluting liver microsomes with 100 mM potassium phosphate buffer to a concentration of 0.56 mg/mL.
2.5.3. Transferring 445 μL of liver microsomal working solution (0.56 mg/mL) to pre-heated incubation plates T60 and NCF60, and then pre-heating the incubation plates T60 and NCF60 for 10 minutes at 37° C. with shaking. Transferring 54 μL of liver microsomes to each well of the blank plate, adding 6 μL of NAPDH coenzyme solution to the blank plate, and finally transferring 180 μL of termination solution to the blank plate.
2.5.4 Adding 5 μL of compound working solution (100 μM) to the incubation plates T60 and NCF60 containing liver microsomes and mixing three times.
2.5.5. Adding 50 μL of buffer to the NCF60 plate and mixing three times, starting the timer and incubating at 37° C. for 60 min with the plate shaking.
2.5.6. Adding 180 μL of quenching solution and 6 μL of NAPDH coenzyme working solution sequentially to quenching plate TO, making sure that the plate was cold to prevent volatilization of the incubation solution.
2.5.7. For plate T60, mixing well three times and immediately transferring 54 μL of mixing solution (0-min time point) to quenching plate TO, then adding 44 μL of NAPDH coenzyme working solution to incubation plate T60. Starting the timer:
2.5.8. At the 5, 15, 30, 45 and 60 minute time points, adding 180 μL of quenching solution to the quenching plate and transferring 60 μL of reaction solution from the T60 plate to the quenching plate at each time point.
2.5.9. For NCF60 plates, mixing well and transferring 60 μL of reaction solution from the NCF60 incubating solution to a quenching plate containing 180 μL of quenching solution at 60th minute.
2.5.10. All plates were mixed on a shaker for 10 min and then centrifuged at 4000 rpm at 4° C. for 20 min.
2.5.11. Transferring 80 μL of supernatant to 240 μL of HPLC water and mixing on a
2.6.1. Calculating t1/2 and Clint (mic) values based on first-order elimination kinetics: […]
In general terms: Liver microsomes are a subcellular fraction often used to study metabolism.

Another data set concerns the target CYP2D6 (Homo sapiens (Human), UniProt P10635). The data set can be described thus: Human liver microsomal CYP inhibition test, CYP2D6. The conditions noted are these: human liver microsomes 0.2 mg/mL; substrate Dextromethorphan. How it is done:
(§1) 3.1 Buffer solutions: (1) potassium phosphate 100 mM; (2) magnesium chloride, 33 mM;
(§2) 3.2.3 Reservoir for compounds to be tested: Dissolving the compounds to be tested in DMSO to form a 10 mM DMSO solution.
(§3) 3.4.1 Preparation of human liver microsomal working solution (1.27×) (final concentration: 0.2 mg/mL)
(§4) 3.5.3 Adding 20 μL of substrate solution to the appropriate wells and 20 μL of potassium phosphate buffer to the blank wells;
(§5) 3.5.4 Adding 2 μL of different concentrations of target compounds (final concentrations from 0.05 μM to 50 μM, 7 concentrations in total) or standard inhibitors to each well, with 2 μL of methanol solution in the non-inhibitor and blank wells;
(§6) 3.5.5 Adding 1.012 mL of liver microsomes to 78.988 mL of potassium phosphate buffer, then adding 158 μL of liver microsomes solution to all wells; preheating the well plate for 10 minutes in a 37° C. water bath;
(§7) 3.5.6 Weighing 129.1 mg NADPH (purchased from SyncoZymes Co. Ltd.) and adding to 15.0 mL of 33 Mm MgCl2 solution to give a 10 mM concentration, adding 20 μL to each well;
(§8) 3.5.7 Mixing and incubating the well plate in a 37° C. water bath for 10 minutes, then adding 400 μL of cold termination solution at the appropriate time point;
(§9) 3.5.8 Centrifuging the sample at 4000 rpm for 20 minutes to precipitate the protein. Transferring 200 μL of supernatant to 100 μL of HPLC water and shaking for 10 minutes. The samples were analyzed by LC/MS/MS;
(§10) Percentage inhibition was plotted for blank control and different concentrations of target compounds by using XL fitting or SigmaPlot and the data were analyzed by non-linear regression. IC50 values were determined by using either 3-parameter or 4-parameter logistic equations.

Another data set addresses CYP1A2 (Homo sapiens (Human), UniProt P05177). The data set is described as follows: Human liver microsomal CYP inhibition test, CYP1A2. How it is done: as §1, §2, §3, §4, §5, §6, §7, §8, §9, §10
In the next data set the target is CYP2C9 (Homo sapiens (Human), UniProt P11712). The data set can be described thus: Human liver microsomal CYP inhibition test, CYP2C9. The conditions noted are these: human liver microsomes 0.2 mg/mL; substrate Diclofenac. How it is done: as §1, §2, §3, §4, §5, §6, §7, §8, §9, §10
Another data set has as its target CYP2C19 (Homo sapiens (Human), UniProt P33261). The data set can be described thus: Human liver microsomal CYP inhibition test, CYP2C19. The conditions noted are these: human liver microsomes 0.2 mg/mL; substrate S-mephenytoin. How it is done:
as §1, §2, §4, §5, §6, §7, §8, §9, §10

The mark [2] stands for this setting: human liver microsomes 0.2 mg/mL, substrate Phenacetin, read-out: IC50 (μM) CYP1A2.

Like-named read-outs stand apart in the source and are kept apart here.

The term IC50 denotes the concentration needed to halve the response being measured.

CYP2C19, sequence (P33261 whole entry): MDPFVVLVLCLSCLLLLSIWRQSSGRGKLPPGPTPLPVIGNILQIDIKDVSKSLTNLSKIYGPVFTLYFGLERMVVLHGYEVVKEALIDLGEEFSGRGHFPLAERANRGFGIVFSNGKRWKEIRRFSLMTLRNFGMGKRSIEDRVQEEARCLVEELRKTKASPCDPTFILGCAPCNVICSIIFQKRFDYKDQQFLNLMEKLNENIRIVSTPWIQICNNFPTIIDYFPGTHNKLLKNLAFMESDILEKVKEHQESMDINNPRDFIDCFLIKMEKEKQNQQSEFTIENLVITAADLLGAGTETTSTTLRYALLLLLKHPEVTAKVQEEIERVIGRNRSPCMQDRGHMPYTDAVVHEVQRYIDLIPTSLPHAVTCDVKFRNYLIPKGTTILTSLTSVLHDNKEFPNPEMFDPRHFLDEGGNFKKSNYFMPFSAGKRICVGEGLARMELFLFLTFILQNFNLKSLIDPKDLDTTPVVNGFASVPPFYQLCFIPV
CYP2C9, sequence (P11712 whole entry): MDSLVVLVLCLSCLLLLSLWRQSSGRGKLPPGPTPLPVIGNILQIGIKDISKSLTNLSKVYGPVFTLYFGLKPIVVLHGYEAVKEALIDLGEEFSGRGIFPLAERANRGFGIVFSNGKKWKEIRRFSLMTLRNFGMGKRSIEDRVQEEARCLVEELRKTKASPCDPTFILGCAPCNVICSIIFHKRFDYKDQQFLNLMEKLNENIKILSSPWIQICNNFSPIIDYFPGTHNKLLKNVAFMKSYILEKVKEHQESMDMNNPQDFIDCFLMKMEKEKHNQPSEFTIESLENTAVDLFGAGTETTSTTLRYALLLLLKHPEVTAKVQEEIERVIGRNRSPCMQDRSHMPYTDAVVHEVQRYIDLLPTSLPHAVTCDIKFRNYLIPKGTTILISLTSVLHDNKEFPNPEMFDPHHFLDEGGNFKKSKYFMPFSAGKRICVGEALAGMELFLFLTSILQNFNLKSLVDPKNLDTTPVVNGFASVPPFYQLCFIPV
CYP2D6, sequence (P10635 whole entry): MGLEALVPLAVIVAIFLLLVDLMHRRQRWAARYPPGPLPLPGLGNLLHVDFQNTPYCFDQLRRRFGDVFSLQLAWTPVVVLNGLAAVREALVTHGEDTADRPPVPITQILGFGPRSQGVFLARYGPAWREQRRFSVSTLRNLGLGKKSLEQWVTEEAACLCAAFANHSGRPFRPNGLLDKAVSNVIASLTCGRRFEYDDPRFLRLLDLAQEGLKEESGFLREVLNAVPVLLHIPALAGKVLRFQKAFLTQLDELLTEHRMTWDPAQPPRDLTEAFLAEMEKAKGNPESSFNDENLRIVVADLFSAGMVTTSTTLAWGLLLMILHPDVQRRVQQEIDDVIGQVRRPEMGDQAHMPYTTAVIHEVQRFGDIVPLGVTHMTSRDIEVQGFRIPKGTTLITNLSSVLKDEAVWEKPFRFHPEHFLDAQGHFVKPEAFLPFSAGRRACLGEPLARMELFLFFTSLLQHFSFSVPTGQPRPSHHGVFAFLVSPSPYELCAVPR
CYP1A2, sequence (P05177 whole entry): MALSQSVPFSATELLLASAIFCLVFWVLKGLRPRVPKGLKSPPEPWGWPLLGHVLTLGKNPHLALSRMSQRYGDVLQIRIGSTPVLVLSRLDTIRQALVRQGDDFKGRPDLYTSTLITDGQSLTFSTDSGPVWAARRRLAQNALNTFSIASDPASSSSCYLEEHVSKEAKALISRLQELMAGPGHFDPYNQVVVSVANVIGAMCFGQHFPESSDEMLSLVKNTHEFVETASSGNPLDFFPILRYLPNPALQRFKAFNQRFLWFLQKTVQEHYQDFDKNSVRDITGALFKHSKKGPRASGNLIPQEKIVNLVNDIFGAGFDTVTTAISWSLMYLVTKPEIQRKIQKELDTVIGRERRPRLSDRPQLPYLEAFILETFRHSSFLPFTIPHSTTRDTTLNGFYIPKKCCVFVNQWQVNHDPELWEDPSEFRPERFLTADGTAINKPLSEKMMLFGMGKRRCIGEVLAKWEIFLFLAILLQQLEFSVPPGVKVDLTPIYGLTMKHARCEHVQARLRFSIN

Turning to “4-((2R,3S,4S,5R)-3-(3,4-difluoro-2-(methoxy-d3)phenyl)-4,5-dimethyl-5-(trifluoromethyl) pyrrolidine-2-carboxamido)pyridinamide [Compound 11]”, in data set [1], the “Human liver microsomes T½” value was found to be 1.59 h. Moreover, the “Human liver microsomes Residual (T = 60 min)” value in data set [1] worked out at 60.1%. Moreover, the IC50 was more than 50 µM at CYP2D6, more than 50 µM on CYP1A2 (microsomes) and 41.4 µM at CYP2C9.
For `COc1c([C@H]2[C@H](C(=O)Nc3ccc[n+]([O-])c3)N[C@@](C)(C(F)(F)F)[C@H]2C)ccc(F)c1F` [Compound 7, 3-((2R,3S,4S,5R)-3-(3,4-difluoro-2-methoxyphenyl)-4,5-dimethyl-5-(trifluoromethyl)pyrrolidine-2-carboxamido)pyridine 1-oxide], the IC50 was 2.13 µM against CYP2C19, more than 50 µM on CYP2D6, more than 50 µM on CYP1A2 (setting [2]) and more than 50 µM at CYP2C9. For the same compound, the “Human liver microsomes Residual (T = 60 min)” value in data set [1] amounted to 74.8%. For the same compound, the half-life at 1 μM in data set [1] is more than 2.42 h.
`COc1c([C@H]2[C@H](C(=O)Nc3cccc(S(N)(=O)=O)c3)N[C@@](C)(C(F)(F)F)[C@H]2C)ccc(F)c1F` [Compound 8, (2R,3S,4S,5R)-3-(3,4-difluoro-2-methoxyphenyl)-4,5-dimethyl-aza-(3-aminosulfonylphenyl)-5-(trifluoromethyl) pyrrolidine-2-carboxamide]: the IC50 is 29 µM against CYP2C19, 41.6 µM at CYP2D6, more than 50 µM against CYP1A2 (microsomes) and 22.9 µM against CYP2C9. For the same compound, the “Human liver microsomes T½” value in data set [1] was more than 2.42 h. Further, the “Human liver microsomes Residual (T = 60 min)” value in data set [1] is reported as 80.3%.
Regarding `COc1c([C@H]2[C@H](C(=O)Nc3ccnc(C(N)=O)c3)O[C@@](C)(C(F)(F)F)[C@H]2C)ccc(F)c1F` [VX-548, reference compound], the IC50 at CYP2C19 is 3.74 µM; against CYP2D6, more than 50 µM; at CYP1A2 (setting [2]), more than 50 µM; on CYP2C9, 17.4 µM. The “Human liver microsomes Residual (T = 60 min)” value in data set [1] was 70.9%. In addition, the half-life at 1 μM in data set [1] amounted to 2.2 h.

The record behind these values is patent US20250296922A1, “POLYSUBSTITUTED PYRROLIDINE DERIVATIVE, PREPARATION METHOD THEREFOR AND USE THEREOF” (SHANGHAI WENNAI THERAPEUTICS CO LTD, priority 2023, published 2025).
